Reference: US5681588A, “Delayed release microtablet of β-phenylpropiophenone derivatives” (priority 1993, dated 1997)
Counter-ions that a name gives are not always drawn.

Experiment: Release of other medicinal substances from the same preparation
Assay type: physicochemical
Details: in 1 hour

| Structure (SMILES) | release from the same preparation |
| --- | --- |
| CC(=O)Nc1ccc(O)cc1 [paracetamol] | 90% |
| CN/C(=N/CCSCc1nc[nH]c1C)NC#N [cimetidine hydrochloride] | 90% |
